This passage reports IC50 results from patent US20240425529A1, “BORIC ACID DERIVATIVE” (SHOUYAO HOLDINGS (BEIJING) CO., LTD., priority 2021, published 2024).

For one assay, the target named is T1, β5 (Homo sapiens, UniProt P28074).
T1 construct: using HEK-293 cell lysate as the enzyme source of D5; endogenous in cells; host or cells: HEK-293 (human embryonic kidney cells)
Put plainly: Enzymatic inhibitory activity on β5 (HEK-293 cell lysate, Ac-WLA-AMC substrate). The format is biochemical. The settings on record: 1 hour pre-incubation. The source says: β5 is a catalytic subunit of immunoproteasomes. In this experiment, an enzymatic detection platform was established using its hydrolytic enzyme activity and used for compound activity detection. Using Ac-WLA-AMC (Bonston Biochem, Cat #5-330) as a substrate for D5, the amount of fluorescent group AMC (7-amino-4-methylcoumarin) released after hydrolysis can reflect the enzymatic activity. […] We established an enzymatic detection method for compound inhibition on D5 using HEK-293 cell lysate as the enzyme source of D5 and detected the compound inhibitory activity (half inhibitory concentration, IC50). The enzymatic inhibitory activity of compounds against D5 was used as a measure index of compound selectivity.
(§1) HEK-293 cells were cultured in a 75 cm^2 cell culture flask (Corning) (37° C., 95% air, and 5% CO2) with DMEM (Biological Industries) medium containing 10% fetal bovine serum (Biological Industries) and 1% Pen Strep (Gibco) and passaged 2-3 times one week. 1×10^7 HEK-293 cells were collected, resuspended in 1 ml of PBS (Solarbio), and centrifuged at 3000 rpm for 5 minutes. The supernatant was aspirated off. The cells were resuspended in 500 μl of lysis buffer (20 mM Tris, pH 8.0, 5 mM EDTA, plus Protease inhibitor (1:1000) and Phosphatase Inhibitor (1:100) when used) and left on ice for 30 minutes. The cells were broken by supersonic technique, 0.5 S on, 0.5 S off, for 2.5 S. The centrifuge was performed at 12000 rpm, 4° C. for 10 minutes. The supernatant was the cell lysate and protein quantification was performed using the BCA method (Thermo, #23225).
Compounds were diluted in a 5-fold gradient with 100% DMSO for a total of 9 concentrations. 2 W for each concentration was added to a 48-μl reaction buffer (20 mM Tris, pH 8.0, 0.5 mM EDTA) and mixed well as 4* compound (final concentrations: 100000, 20000, 4000, 800, 160, 32, 6.4, 1.28, and 0 nM) for later use. A reaction buffer was used to prepare 4*HEK-293 cell lysate at a final concentration of 25 ng/μl and 2*Ac-WLA-AMC at a final concentration of 20 μM. 5 W of 4* compound was added to a 384-well plate (OptiPlate-384, purchased from PerkinElmer), added with 5 W of 4*HEK-293 cell lysate, centrifuged, and reacted in an incubator at 23° C. for 1 hour. 10 W of 2* Ac-WLA-AMC was added and the reaction was started by centrifugation at 23° C. in the dark for 2 hours. After completion of the reaction, the signal value (excitation wavelength 345 nm/emission wavelength 445 nm) was read on the CLARIO star^Plus (purchased from BMG LRBTECH). Enzyme activity was determined at 9 concentrations for each compound, and data were processed using the GraphPad Prism software to calculate the half inhibitory concentration of the compound on D5, i.e. the IC50 value.

Assay [1] deals with T2, LMP7 (Homo sapiens, UniProt P28062).
T2 construct: using MOLT-4 cell lysate as the enzyme source of LMP7; endogenous in cells; host or cells: MOLT-4 (human acute lymphoblastic leukemia cells)
Put plainly: Enzymatic inhibitory activity on LMP7 (MOLT-4 cell lysate, Ac-ANW-AMC substrate). It is filed as biochemical. The settings on record: 1 hour pre-incubation.
Description: LMP7 is a catalytic subunit of immunoproteasomes. In this experiment, an enzymatic detection platform was established using its hydrolytic enzyme activity and used for compound activity detection. Using Ac-ANW-AMC (Bonston Biochem, Cat #S-320) as a substrate for LMP7, the amount of fluorescent group AMC (7-amino-4-methylcoumarin) released after hydrolysis can reflect the enzymatic activity. MOLT-4 cells are human acute lymphoblastic leukemia cells and have been identified as cells with high expression of LMP7. We established an enzymatic detection method for compound inhibition on LMP7 using MOLT-4 cell lysate as the enzyme source of LMP7 and detected the compound inhibitory activity (half inhibitory concentration, IC50).
as §1, with “MOLT-4 cells were” for “HEK-293 cells were”, “CO2) with RPMI-1640 (Biological Industries)” for “CO2) with DMEM (Biological Industries)”, “week. 1×10^7 MOLT-4 cells were” for “week. 1×10^7 HEK-293 cells were”, “was performed by using the” for “was performed using the”
Compounds were diluted in a 5-fold gradient with 100% DMSO for a total of 9 concentrations: 2 W for each concentration was added to a 48-μl reaction buffer (20 mM Tris, pH 8.0, 0.5 mM EDTA) and mixed well as 4* compound (final concentrations: 2000, 400, 80, 16, 3.2, 0.64, 0.128, 0.0256, and 0 nM) for later use. A reaction buffer was used to prepare 4* MOLT-4 cell lysate at a final concentration of 20 ng/μl and 2*Ac-ANW-AMC at a final concentration of 100 µM. 5 μl of 4* compound was added to a 384-well plate (OptiPlate-384, purchased from PerkinElmer), added with 5 W of 4* cell lysate, centrifuged, and reacted in an incubator at 23° C. for 1 hour. 10 W of 2* Ac-ANW-AMC was added and the reaction was started by centrifugation at 23° C. in the dark for 2 hours. After completion of the reaction, the signal value (excitation wavelength 345 nm/emission wavelength 445 nm) was read on the CLARIO star^Plus (purchased from BMG LRBTECH). Enzyme activity was determined at 9 concentrations for each compound, and data were processed using the GraphPad Prism software to calculate the half inhibitory concentration of the compound on LMP7, i.e. the IC50 value.

In assay [2] the target is T2, LMP7. Put plainly: Cytological inhibitory activity on LMP7 in MOLT-4 cells. It is filed as cell-based. The settings on record: incubation for 2 hours with compound, read-out: Cytological activity data LMP7 Activity (MOLT-4Cell). As to the method:
MOLT-4 are human acute lymphoblastic leukemia cells and have been identified as cells with high expression of LMP7. In this experiment, the compounds were pre-incubated with MOLT-4, and Ac-ANW-AMC (BonstonBiochem, Cat #S-320) was used as the substrate of LMP7 to establish the detection method for the enzymatic activity of LMP7 in cells and detect the compound inhibitory activity (half inhibitory concentration, IC50).
Cells were plated in a 24-well plate (Corning) at a concentration of 1.5×10^5/ml per well. The next day compounds were prepared and diluted in a 5-fold gradient from 2 mM in 100% DMSO for a total of 8 concentrations. 2 μl for each concentration of the compound was added to a 1-ml cell culture medium, supplemented with 1 ml of RPMI-1640 only (final FBS concentration 5%, v/v). The compounds were mixed with the cells. After incubation for 2 hours in the incubator, the cells were centrifuged at 2000 rpm for 8 minutes to discard the supernatant. The cells were washed once with 2 ml PBS (Solarbio), and centrifuged again to discard the supernatant. The cells were resuspended in 100 μl of lysis buffer (20 mM Tris, pH 8.0, 5 mM EDTA, plus Protease inhibitor (1: 100) and Phosphatase Inhibitor (1:100) when used) and left in a 4° C. refrigerator for 45 minutes.
After 2 min. of centrifuge at 2000 rpm, the lysate was transferred from the 24-well plate to a 96-well plate, and centrifuged at 2000 rpm, 4° C., for 15 min. The supernatant was the lysate. Protein quantification was performed using the BCA method (Thermo, #23225). A 2* lysate was prepared with the reaction buffer (20 mM Tris, pH 8.0, 0.5 mM EDTA) at a final concentration of 20 ng/μl. 2* Ac-ANW-AMC was prepared with the reaction buffer at a final concentration of 100 μM. 10 µl of 2* lysate was added to a 384-well plate (OptiPlate-384, purchased from PerkinElmer), and added with 10 W of 2* Ac-ANW-AMC. The reaction was started by centrifugation at 23° C. in the dark for 1 hour. After completion of the reaction, the signal value (excitation wavelength 345 nm/emission wavelength 445 nm) was read on the CLARIO starPlus (purchased from BMG LRBTECH). Enzyme activity was determined at 8 concentrations for each compound, and data were processed using the GraphPad Prism software to calculate the half inhibitory concentration of the compound on LMP7 hydrolase in MOLT-4 cells, i.e. the IC50 value.

The structures appear in SMILES notation.

Take `COc1ncccc1NC(=O)C(=O)N[C@@H](Cc1coc2ccccc12)B(O)O` [Ex. 45, (R)-(2-(benzofuran-3-yl)-1-(2-oxo-2-((2-methoxypyridin-3-yl)amino)acetamido)ethyl)boronic acid]: the IC50 is 97.7 nM at β5, 5.32 nM against LMP7 [1] and 22.7 nM on LMP7 [2].
The matching figures for `O=C(Nc1ncc(F)s1)C(=O)N[C@@H](Cc1coc2ccccc12)B(O)O` [Ex. 34, (R)-(2-(benzofuran-3-yl)-1-(2-oxo-2-((5-fluorothiazol-2-yl)amino)acetamido)ethyl)boronic acid]: 132 nM, 7.46 nM and 29.2 nM.
On to `CC1(C)[C@@H]2C[C@H]3OB([C@H](Cc4coc5ccccc45)NC(=O)C(=O)Nc4ncc(Cl)s4)O[C@@]3(C)[C@H]1C2` [Ex. 35, (R)-(2-(benzofuran-3-yl)-1-(2-oxo-2-((5-chlorothiazol-2-yl)amino)acetamido)ethyl)boronic acid (1S,2S,3R,5S)-(+)-pinane-2,3-diol ester], for which the IC50 stood at 38.4 nM against β5, 1.99 nM at LMP7 [1] and 13.6 nM at LMP7 [2].
For `C[C@@H]1COB([C@H](Cc2coc3ccccc23)NC(=O)C(=O)Nc2cnccn2)O1` [Ex. 69], the results for the IC50 at β5, at LMP7 [1] and at LMP7 [2] were 18.2 nM, 1.44 nM and 0.88 nM, respectively.
As to `O=C(Nc1nccs1)C(=O)N[C@@H](Cc1coc2ccccc12)B(O)O` [Ex. 13, (R)-(2-(benzofuran-3-yl)-1-(2-oxo-2-(thiazol-2-ylamino)acetamido)ethyl) boronic acid], the IC50 turned out to be 58.7 nM against β5, 3.13 nM against LMP7 [1] and 4.06 nM on LMP7 [2].
On to `COC(=O)C(=O)N[C@@H](Cc1coc2ccccc12)B(O)O` [Ex. 62, (R)-(2-(benzofuran-3-yl)-1-(2-oxo-2-methoxyacetamido)ethyl)boronic acid], for which the IC50 at β5 is 1300 nM; against LMP7 [1] it was 7.89 nM; on LMP7 [2], 26.7 nM.
Consider `COc1ccc2nc(NC(=O)C(=O)N[C@@H](Cc3coc4ccccc34)B(O)O)sc2c1` [Ex. 26, (R)-(2-(benzofuran-3-yl)-1-(2-oxo-2-((6-methoxybenzo[d]thiazol-2-yl)amino)acetamido)ethyl)boronic acid], for which the IC50 on β5 came to 19.4 nM; against LMP7 [1], 4.86 nM; at LMP7 [2], 0.73 nM.
Turning to `O=C(Nc1cccc2c1OCCO2)C(=O)N[C@@H](Cc1coc2ccccc12)B(O)O` [Ex. 30, (R)-(2-(benzofuran-3-yl)-1-(2-oxo-2-((2,3-dihydrobenzo[b][1,4]dioxin-5-yl)amino)acetamido)ethyl)boronic acid], the values for the IC50 at β5, against LMP7 [1] and on LMP7 [2] were 24.6 nM, 5.61 nM and 8.77 nM, respectively.
Take `O=C(Nc1cccnc1Cl)C(=O)N[C@@H](Cc1coc2ccccc12)B(O)O` [Ex. 64, (R)-(2-(benzofuran-3-yl)-1-(2-oxo-2-((2-chloropyridin-3-yl)amino)acetamido)ethyl)boronic acid]: the figures for the IC50 at β5, at LMP7 [1] and on LMP7 [2] were 25.4 nM, 2.31 nM and 1.79 nM, respectively.
For the compound `O=C(N[C@@H](Cc1coc2ccccc12)B(O)O)C(=O)N1CCCC(F)(F)C1` [Ex. 56, (R)-(2-(benzofuran-3-yl)-1-(2-oxo-2-(3,3-difluoropiperidin-1-yl)acetamido)ethyl)boronic acid], the IC50 was 88.4 nM against β5, 7.48 nM against LMP7 [1] and 6.39 nM at LMP7 [2].
Regarding `O=C(Nc1ncc(Cl)s1)C(=O)N[C@@H](Cc1coc2ccccc12)B(O)O` [Ex. 36, (R)-(2-(benzofuran-3-yl)-1-(2-oxo-2-((5-chlorothiazol-2-yl)amino)acetamido)ethyl)boronic acid], the IC50 against β5 came out at 54.5 nM; on LMP7 [1], 3.14 nM; on LMP7 [2], 19.5 nM.
Consider `O=C(Nc1cnccn1)C(=O)N[C@@H](Cc1coc2ccccc12)B1OCCCO1` [Ex. 70], for which the results for the IC50 on β5, at LMP7 [1] and at LMP7 [2] were 26 nM, 1.5 nM and 0.91 nM, respectively.
For `O=C(Nc1cccc2c1OCC2)C(=O)N[C@@H](Cc1coc2ccccc12)B(O)O` [Ex. 28, (R)-(2-(benzofuran-3-yl)-1-(2-oxo-2-((2,3-dihydrobenzofuran-7-yl)amino)acetamido)ethyl)boronic acid], the IC50 turned out to be 22.6 nM on β5, 3.82 nM on LMP7 [1] and 3.84 nM at LMP7 [2].
